Columns and labels:
Stromelysin-1 [1] = biological target: T1, Stromelysin-1 (Homo sapiens, UniProt P08254); assay: Inhibition of recombinant human Matrix metalloprotease-3
Target sequence in this assay (P08254 whole entry): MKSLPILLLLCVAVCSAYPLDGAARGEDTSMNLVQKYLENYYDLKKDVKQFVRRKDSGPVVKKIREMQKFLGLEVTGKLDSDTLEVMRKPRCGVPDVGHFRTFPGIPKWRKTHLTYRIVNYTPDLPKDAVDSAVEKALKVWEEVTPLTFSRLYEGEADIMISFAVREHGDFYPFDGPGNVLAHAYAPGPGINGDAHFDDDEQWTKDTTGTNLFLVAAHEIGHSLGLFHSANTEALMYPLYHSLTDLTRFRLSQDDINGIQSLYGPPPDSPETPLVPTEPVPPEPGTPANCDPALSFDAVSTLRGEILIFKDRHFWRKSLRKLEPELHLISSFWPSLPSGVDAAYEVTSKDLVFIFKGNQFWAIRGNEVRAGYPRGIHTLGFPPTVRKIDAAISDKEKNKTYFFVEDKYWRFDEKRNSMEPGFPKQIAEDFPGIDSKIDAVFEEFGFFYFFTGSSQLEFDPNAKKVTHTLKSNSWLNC

[2] = biological target: T2, Matrix metalloproteinase-9 (Homo sapiens, UniProt P14780); assay: Inhibition of recombinant human Matrix metalloprotease-9
Interstitial collagenase [3] = biological target: T3, Interstitial collagenase (Homo sapiens, UniProt P03956); assay: Inhibition of recombinant human Matrix metalloprotease-1
T3 sequence (P03956 whole entry): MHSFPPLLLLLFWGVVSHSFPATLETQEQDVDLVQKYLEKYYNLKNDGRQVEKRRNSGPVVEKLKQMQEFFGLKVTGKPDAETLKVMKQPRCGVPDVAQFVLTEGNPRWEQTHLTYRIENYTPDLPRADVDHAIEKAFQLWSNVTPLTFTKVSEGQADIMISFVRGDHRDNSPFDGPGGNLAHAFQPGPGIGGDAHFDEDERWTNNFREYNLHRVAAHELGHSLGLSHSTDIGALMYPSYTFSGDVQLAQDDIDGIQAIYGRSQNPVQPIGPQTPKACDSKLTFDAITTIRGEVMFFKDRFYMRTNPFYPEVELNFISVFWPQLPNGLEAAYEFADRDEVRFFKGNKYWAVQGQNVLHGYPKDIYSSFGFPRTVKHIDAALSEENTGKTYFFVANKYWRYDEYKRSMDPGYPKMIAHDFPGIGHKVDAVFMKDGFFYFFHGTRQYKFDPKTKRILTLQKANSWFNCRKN

[4] = biological target: T4, Disintegrin and metalloproteinase domain-containing protein 17 (Homo sapiens, UniProt P78536); assay: Inhibition of recombinant human tumor necrosis factor-alpha converting enzyme
Stromelysin-1 [5] = biological target: T1, Stromelysin-1; assay: Inhibition of recombinant human Matrix metalloprotease-3 at 1000 nM
Target sequence in this assay (P08254 100-477 limits assumed): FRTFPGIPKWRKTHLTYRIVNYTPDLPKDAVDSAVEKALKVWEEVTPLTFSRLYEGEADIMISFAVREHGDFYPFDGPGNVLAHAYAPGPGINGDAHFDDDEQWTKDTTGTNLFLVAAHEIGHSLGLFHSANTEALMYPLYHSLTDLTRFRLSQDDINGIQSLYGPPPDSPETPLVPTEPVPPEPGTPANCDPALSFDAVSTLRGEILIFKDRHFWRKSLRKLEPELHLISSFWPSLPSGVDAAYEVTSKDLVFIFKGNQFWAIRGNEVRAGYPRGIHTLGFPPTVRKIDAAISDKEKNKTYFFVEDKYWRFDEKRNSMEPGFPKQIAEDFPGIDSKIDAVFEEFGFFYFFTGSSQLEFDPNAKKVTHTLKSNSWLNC

[6] = biological target: T5, Interstitial collagenase (Homo sapiens) (UniProt P03956); assay: Inhibition of recombinant human Matrix metalloprotease-1 at 1000 nM
T5 sequence (whole entry): T3 sequence (P03956 whole entry)

[7] = biological target: T2, Matrix metalloproteinase-9; conditions: 1000 nM
Description: Inhibition of recombinant human Matrix metalloprotease-9 at 1000 nM

[8] = biological target: T4, Disintegrin and metalloproteinase domain-containing protein 17; conditions: 1000 nM
Description: Inhibition of recombinant human TACE at 1000 nM

[9] = biological target: T5, Interstitial collagenase (Homo sapiens); assay: Inhibition of recombinant human matrix metalloprotease-1 at 1000 nM
Interstitial collagenase [10] = biological target: T3, Interstitial collagenase; assay: Inhibition of recombinant human matrix metalloprotease-1

T2 sequence (P14780 whole entry): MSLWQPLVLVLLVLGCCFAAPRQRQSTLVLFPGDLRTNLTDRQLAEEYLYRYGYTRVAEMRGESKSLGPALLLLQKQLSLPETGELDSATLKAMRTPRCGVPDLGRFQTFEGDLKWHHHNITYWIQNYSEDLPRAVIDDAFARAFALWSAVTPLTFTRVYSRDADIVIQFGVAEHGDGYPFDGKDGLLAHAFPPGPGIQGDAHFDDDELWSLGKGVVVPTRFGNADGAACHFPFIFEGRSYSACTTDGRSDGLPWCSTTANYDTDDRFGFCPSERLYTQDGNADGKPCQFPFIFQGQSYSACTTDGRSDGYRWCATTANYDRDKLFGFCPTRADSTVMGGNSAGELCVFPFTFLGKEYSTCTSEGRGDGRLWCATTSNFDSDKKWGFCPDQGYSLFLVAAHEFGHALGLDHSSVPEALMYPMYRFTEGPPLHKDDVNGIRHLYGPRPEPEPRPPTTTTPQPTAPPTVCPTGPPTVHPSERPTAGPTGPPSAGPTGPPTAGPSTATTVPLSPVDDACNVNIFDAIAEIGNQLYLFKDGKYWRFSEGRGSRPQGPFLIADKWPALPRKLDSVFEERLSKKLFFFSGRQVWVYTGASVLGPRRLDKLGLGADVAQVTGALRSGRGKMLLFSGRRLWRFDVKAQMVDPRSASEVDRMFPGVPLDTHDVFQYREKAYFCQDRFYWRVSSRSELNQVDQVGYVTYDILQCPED
T4 sequence (P78536 whole entry, the tested form may be a part): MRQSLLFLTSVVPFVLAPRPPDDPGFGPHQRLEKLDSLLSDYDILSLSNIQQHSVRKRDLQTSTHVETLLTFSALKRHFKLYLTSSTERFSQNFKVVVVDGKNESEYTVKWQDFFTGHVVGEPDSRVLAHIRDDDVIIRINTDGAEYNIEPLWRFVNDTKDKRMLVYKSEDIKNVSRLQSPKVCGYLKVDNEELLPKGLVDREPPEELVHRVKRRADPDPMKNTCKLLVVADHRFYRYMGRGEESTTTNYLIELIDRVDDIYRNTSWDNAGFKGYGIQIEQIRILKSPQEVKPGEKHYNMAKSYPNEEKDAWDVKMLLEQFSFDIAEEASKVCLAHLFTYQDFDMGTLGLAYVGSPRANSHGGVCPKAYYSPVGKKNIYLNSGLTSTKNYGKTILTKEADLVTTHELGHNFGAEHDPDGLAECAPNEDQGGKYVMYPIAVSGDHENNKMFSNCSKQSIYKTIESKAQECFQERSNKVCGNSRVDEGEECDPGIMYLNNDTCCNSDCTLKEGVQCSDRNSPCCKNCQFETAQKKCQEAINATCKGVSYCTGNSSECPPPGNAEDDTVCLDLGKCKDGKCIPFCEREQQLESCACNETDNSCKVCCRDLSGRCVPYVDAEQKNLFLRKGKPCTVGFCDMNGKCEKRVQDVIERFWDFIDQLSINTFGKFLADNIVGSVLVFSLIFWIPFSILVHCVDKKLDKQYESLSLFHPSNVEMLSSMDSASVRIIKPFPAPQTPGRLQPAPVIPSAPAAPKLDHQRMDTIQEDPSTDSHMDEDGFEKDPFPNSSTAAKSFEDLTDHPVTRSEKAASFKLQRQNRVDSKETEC

Structure (SMILES) | Ki (Stromelysin-1 [1]) | Ki [2] | Ki (Interstitial collagenase [3]) | Ki [4] | inhibition (Stromelysin-1 [5]) | inhibition [6] | inhibition [7] | inhibition [8] | inhibition [9] | Ki (Interstitial collagenase [10])
CCOP(=O)(N[C@H](CC(C)C)C(=O)NO)c1ccc(OC)cc1 (stereo partly specified) | 69.8 nM | 165 nM | 196 nM | 5.06 nM |  |  |  |  |  | 
CCOP(=O)(c1ccc(OC)cc1)N1Cc2ccccc2C[C@H]1C(=O)NO (single isomer, unassigned) |  |  |  |  | 9% | 26% | 18% | 41% |  | 
CCOP(=O)(N[C@@H](CCC(=O)NCCc1ccccc1)C(=O)NO)c1ccc(OC)cc1 (stereo partly specified) |  |  |  | 10 nM | 47% |  | 24% |  | 27% | 
CCOP(=O)(c1ccc(OC)cc1)N1Cc2ccccc2C[C@@H]1C(=O)NO (single isomer, unassigned) |  |  |  | 7.15 nM |  |  |  |  |  | 
CCOP(=O)(N[C@@H](CC(C)C)C(=O)NO)c1ccc(OC)cc1 (stereo partly specified) |  |  |  | 76.4 nM | 17% |  | 17% |  | 10% | 
CCOP(=O)(N[C@H](CCC(=O)NCCc1ccccc1)C(=O)NO)c1ccc(OC)cc1 (stereo partly specified) | 7.29 nM | 23.7 nM |  | 27.6 nM |  |  |  |  |  | 40.4 nM

From ChEMBL document CHEMBL1136540, “Discovery of selective phosphonamide-based inhibitors of tumor necrosis factor-alpha converting enzyme (TACE)” (Bioorg Med Chem Lett, 2003)
